Data taken from patent US9133183B2, “Imidazolidinones and analogs exhibiting anti-cancer and anti-proliferative activities” (Deciphera Pharmaceuticals, LLC, priority 2013, dated 2015).
Like-named read-outs stand apart in the source and are kept apart here.

Tests used:
[1] = target: unphosphorylated c-FMS kinase (uFMS, Seq. ID no. 1) (Homo sapiens (Human), UniProt P07333); assay: uFMS kinase assay (ADP production coupled to pyruvate kinase/lactate dehydrogenase); type: biochemical
In short: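 Unphosphorylated FMS (10 nM) with polyE4Y 1 mg/mL and 500 μM ATP in 90 mM Tris pH 7.5, 10 mM MgCl2, 0.2% octyl-glucoside, 1% DMSO. ADP formation was coupled via pyruvate kinase/LDH to NADH oxidation, followed at A340 for 4 h at 30° C.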

[2] = target: unphosphorylated c-KIT kinase (uKIT, Seq. ID no. 2) (Homo sapiens (Human), UniProt P10721); assay: uKit kinase assay (coupled pyruvate kinase/lactate dehydrogenase); type: biochemical; details: enzymatic assay, ATP 2000 μM
In short: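 The read-out was a continuous PK/LDH-coupled decrease in NADH absorbance at 340 nm, monitored at 30 °C over 4 h. IC50 came from % inhibition based on rates at 3–4 h. The GST-tagged unphosphorylated KIT (12 nM) was used with polyE4Y substrate, 2000 μM ATP and 10 mM Mg2+ at pH 7.5, with serially diluted compound.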

[3] = target: unphosphorylated PDGFRβ kinase (uPDGFRβ, Seq. ID No. 3) (Homo sapiens (Human), UniProt P09619); assay: Unphosphorylated PDGFRβ kinase assay (coupled pyruvate kinase/lactate dehydrogenase); type: biochemical; details: enzymatic assay, ATP 500 μM
In short: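 Construct residues 557-1106, unphosphorylated, 15.7 nM, with poly E4Y 2.5 mg/mL and 500 μM ATP, Tris pH 7.5, 1% DMSO, 30 °C. ADP coupled to NADH oxidation via PK/LDH, A340 followed 4 h; rate from 1.5-2.5 h versus no-compound control, IC50 from percent-inhibition series.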

M-NFS-60 cells = assay: M-NFS-60 cell proliferation assay (resazurin); type: cell-based; details: 67 h incubation
In short: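 Cells kept in medium containing 20 ng/mL mouse recombinant M-CSF. Fluorescence was read at ex 540/em 600 nm, and IC50 was fitted from percent inhibition across a range of inhibitor concentrations.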

osteoclast precursors = assay: Osteoclast tartrate-resistant acid phosphatase assay; type: cell-based; details: Osteoclast, 7-14 days, RANKL and M-CSF
[4] = target: c-FMS kinase in THP-1 cells (Homo sapiens (Human), UniProt P07333); assay: Phospho-FMS ELISA assay in THP-1 cells; type: cell-based
Experimental: THP-1 cells (catalog #TIB-202) were obtained from the ATCC. Briefly, cells were grown in RPMI 1640 supplemented with 10% characterized fetal bovine serum, 1% sodium pyruvate, 1% Penicillin-Streptomycin-Glutamine (PSG) and 55 uM 2-mercaptoethanol (Invitrogen, Carlsbad, Calif.) at 37 degrees Celsius, 5% CO2, 95% humidity. Cells were allowed to expand until reaching 70-95% confluency at which point they were subcultured or harvested for assay use.
A serial dilution of test compound was diluted 1:100 in assay medium (RPMI 1640 supplemented with 10% characterized fetal bovine serum) in a 96 well black clear bottom plate (Corning, Corning, N.Y.). In a separate 96 well black clear bottom plate, one hundred and fifty thousand THP-1 cells were added per well in 100 μL in assay medium. Fifty microliters of diluted compound was then added to the cells. Plates were incubated for 4 hours at 37 degrees Celsius, 5% CO2, 95% humidity. At the end of the incubation period, cells were stimulated with 50 μL of a 100 nM solution of recombinant human M-CSF (catalog #216-MC, R & D Systems, Minneapolis, Minn.) in assay medium and the plate was incubated for 5 minutes at 37 degrees Celsius, 5% CO2, 95% humidity. Lysates were prepared and used to perform the phospho-FMS ELISA as described by the manufacturer (catalog #DYC3268, R & D Systems, Minneapolis, Minn.). GraphPad Prism was used to calculate IC50 values obtained from data generated from the ELISA assay.

cMET kinase = cMET kinase (Homo sapiens (Human), UniProt P08581); assay: cMET kinase inhibition (Table 4); type: biochemical
KDR kinase = KDR kinase (Homo sapiens (Human), UniProt P35968); assay: KDR kinase inhibition (Table 4); type: biochemical
[5] = uFMS, enzymatic assay, ATP 500 μM
[6] = enzymatic assay, ATP 500 μM, read-out: uFMS
[7] = 4 h compound, M-CSF stimulation 5 min, read-out: pFMS inhibition in THP-1 cells

Chain of unphosphorylated c-FMS kinase (uFMS, Seq. ID no. 1) (P07333 538-972): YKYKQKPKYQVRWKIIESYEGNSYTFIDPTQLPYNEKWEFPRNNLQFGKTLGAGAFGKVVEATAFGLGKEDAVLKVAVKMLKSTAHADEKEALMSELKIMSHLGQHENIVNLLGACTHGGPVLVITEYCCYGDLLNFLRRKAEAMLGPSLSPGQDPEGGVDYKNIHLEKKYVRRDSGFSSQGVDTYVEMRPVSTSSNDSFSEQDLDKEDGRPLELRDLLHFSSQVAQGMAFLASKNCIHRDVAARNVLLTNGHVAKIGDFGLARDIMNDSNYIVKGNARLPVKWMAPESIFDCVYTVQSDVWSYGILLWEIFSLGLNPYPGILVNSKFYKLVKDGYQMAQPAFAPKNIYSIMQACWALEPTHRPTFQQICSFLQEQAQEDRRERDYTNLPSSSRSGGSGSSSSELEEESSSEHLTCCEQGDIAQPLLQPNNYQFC
Chain of cMET kinase (P08581 25-1390): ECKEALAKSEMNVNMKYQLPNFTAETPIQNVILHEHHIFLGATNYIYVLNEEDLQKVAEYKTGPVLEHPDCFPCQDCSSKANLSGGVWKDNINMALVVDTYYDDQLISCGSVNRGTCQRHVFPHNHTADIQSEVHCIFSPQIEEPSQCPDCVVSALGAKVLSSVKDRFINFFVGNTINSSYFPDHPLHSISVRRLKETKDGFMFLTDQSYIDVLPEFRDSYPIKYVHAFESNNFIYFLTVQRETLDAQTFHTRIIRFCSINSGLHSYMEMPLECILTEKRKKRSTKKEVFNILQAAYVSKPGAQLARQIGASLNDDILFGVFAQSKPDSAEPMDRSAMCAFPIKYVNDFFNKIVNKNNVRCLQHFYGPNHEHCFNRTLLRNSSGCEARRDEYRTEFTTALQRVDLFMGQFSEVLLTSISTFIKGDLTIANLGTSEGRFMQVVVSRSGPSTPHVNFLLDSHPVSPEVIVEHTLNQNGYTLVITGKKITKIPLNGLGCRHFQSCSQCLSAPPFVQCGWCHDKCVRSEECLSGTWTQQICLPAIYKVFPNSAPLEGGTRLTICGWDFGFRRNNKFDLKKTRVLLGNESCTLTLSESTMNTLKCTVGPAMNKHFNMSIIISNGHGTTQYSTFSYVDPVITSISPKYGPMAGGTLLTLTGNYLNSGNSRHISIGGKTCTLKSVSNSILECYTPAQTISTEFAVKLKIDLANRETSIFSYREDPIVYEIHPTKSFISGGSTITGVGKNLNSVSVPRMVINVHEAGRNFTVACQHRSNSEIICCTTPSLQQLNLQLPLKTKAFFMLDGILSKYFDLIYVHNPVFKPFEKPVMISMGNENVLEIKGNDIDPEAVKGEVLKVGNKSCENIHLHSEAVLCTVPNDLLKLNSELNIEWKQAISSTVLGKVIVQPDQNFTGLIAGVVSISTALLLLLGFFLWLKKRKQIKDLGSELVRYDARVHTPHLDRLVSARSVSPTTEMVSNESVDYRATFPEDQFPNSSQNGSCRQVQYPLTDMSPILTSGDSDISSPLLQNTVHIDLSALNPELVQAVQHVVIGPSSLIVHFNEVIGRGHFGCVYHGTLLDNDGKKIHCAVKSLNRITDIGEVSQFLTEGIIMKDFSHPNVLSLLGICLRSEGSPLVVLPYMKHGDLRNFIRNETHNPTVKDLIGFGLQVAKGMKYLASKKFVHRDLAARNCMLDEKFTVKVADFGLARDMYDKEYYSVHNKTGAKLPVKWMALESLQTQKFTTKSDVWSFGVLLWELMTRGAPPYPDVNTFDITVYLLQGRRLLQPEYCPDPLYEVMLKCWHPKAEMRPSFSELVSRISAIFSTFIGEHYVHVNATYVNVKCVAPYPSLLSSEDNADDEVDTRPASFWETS
Chain of c-FMS kinase in THP-1 cells (P07333 20-972): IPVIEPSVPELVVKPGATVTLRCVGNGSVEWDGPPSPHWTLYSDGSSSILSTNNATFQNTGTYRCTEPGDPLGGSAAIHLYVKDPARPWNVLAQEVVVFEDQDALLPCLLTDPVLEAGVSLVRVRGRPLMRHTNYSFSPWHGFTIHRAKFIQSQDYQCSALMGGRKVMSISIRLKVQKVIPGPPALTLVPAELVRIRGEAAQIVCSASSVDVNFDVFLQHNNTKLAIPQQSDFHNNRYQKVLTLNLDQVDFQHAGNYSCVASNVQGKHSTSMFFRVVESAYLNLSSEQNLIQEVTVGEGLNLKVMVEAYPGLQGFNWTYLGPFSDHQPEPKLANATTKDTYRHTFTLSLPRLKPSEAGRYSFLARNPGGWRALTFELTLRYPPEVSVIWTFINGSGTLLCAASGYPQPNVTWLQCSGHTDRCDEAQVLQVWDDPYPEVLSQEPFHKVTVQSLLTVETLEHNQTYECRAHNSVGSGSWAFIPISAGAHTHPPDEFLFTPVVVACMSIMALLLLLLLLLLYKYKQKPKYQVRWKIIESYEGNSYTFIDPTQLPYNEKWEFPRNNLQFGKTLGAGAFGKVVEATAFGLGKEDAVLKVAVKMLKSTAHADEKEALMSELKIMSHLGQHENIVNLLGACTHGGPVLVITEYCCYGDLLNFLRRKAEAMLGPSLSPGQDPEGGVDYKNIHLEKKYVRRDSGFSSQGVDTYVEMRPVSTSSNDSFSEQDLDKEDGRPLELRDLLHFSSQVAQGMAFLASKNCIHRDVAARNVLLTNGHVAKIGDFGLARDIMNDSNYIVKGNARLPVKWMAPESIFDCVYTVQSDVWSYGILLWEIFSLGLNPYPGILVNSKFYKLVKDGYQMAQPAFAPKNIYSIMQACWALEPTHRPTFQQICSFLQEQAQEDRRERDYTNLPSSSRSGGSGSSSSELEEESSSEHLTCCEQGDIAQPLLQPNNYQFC
Chain of unphosphorylated PDGFRβ kinase (uPDGFRβ, Seq. ID No. 3) (P09619 557-1106): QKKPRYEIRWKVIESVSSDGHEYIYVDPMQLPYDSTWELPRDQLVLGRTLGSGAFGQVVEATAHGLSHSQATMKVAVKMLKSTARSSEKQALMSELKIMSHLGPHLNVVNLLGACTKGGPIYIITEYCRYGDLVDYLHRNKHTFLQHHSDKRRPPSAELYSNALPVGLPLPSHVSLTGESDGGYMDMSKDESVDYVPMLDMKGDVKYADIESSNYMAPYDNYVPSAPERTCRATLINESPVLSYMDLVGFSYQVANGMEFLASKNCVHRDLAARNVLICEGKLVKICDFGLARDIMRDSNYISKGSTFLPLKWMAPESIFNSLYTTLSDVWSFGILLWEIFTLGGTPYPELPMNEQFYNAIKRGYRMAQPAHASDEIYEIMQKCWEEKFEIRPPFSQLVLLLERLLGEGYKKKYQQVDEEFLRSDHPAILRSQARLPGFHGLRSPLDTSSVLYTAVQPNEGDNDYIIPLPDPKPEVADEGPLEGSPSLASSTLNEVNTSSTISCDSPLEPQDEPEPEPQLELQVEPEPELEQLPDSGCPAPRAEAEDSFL
Chain of KDR kinase (P35968 20-1356): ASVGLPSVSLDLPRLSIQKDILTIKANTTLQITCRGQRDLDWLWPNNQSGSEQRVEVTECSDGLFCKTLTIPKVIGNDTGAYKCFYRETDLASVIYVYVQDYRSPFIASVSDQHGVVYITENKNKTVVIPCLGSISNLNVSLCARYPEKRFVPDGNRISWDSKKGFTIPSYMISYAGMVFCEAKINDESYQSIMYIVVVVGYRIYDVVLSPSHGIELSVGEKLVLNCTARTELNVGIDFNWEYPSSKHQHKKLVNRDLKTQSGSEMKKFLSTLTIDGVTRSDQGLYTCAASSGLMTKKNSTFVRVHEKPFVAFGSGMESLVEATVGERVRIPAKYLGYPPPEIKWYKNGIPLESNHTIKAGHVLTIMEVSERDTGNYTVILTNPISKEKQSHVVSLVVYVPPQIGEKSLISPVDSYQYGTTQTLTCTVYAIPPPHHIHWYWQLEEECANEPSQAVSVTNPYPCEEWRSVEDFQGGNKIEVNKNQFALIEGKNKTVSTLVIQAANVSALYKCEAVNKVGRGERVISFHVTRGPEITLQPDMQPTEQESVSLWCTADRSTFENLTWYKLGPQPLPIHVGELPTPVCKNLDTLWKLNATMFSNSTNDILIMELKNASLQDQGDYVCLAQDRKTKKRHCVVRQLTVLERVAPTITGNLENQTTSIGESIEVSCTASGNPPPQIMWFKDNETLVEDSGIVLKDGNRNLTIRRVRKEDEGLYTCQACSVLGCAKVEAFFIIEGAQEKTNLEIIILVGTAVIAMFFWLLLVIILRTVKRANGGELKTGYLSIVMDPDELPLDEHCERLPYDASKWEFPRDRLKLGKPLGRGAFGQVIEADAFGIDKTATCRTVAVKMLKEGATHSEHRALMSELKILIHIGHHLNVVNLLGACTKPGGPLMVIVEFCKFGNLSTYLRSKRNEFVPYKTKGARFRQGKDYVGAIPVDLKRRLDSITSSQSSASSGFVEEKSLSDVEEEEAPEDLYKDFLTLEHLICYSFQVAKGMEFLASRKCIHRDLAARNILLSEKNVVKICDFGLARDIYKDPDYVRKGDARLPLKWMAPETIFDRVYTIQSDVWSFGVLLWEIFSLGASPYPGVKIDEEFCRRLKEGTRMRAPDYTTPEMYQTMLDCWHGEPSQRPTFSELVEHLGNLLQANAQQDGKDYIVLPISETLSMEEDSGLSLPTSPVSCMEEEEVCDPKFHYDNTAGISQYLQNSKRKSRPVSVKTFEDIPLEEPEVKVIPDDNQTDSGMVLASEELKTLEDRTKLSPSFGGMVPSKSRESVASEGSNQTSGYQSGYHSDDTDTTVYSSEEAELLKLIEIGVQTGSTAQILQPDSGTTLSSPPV

| SMILES | IC50 (osteoclast precursors) [nM] | IC50 [1, 6] [nM] | IC50 [4, 7] [nM] | IC50 [1, 5] [nM] | IC50 [2] [nM] | IC50 [3] [nM] | IC50 (M-NFS-60 cells) [nM] | IC50 [4] [nM] | IC50 ([1]; Table 4, read-out: c-FMS IC50) [nM] | IC50 (cMET kinase) [nM] | IC50 (KDR kinase) [nM] |
| --- | --- | --- | --- | --- | --- | --- | --- | --- | --- | --- | --- |
| Cc1nc(NC(=O)N2CCN(C3CCOC3)C2=O)ccc1Oc1ccnc(-c2cnn(C)c2)c1 (stereo in doubt) [Example 23, (S)—N-(6-methyl-5-((2-(1-methyl-1H-pyrazol-4-yl)pyridin-4-yl)oxy)pyridin-2-yl)-2-oxo-3-(tetrahydrofuran-3-yl)imidazolidine-1-carboxamide] | 10 to 100 |  |  | 10 to 100 | > 1000 | > 1000 | 10 to 100 | 10 to 100 |  |  |  |
| O=C(Nc1ccc(Oc2ccnc(-c3cn[nH]c3)c2)cn1)N1CCN(C2CCOCC2)C1=O [Example 5, N-(5-((2-(1H-pyrazol-4-yl)pyridin-4-yl)oxy)pyridin-2-yl)-2-oxo-3-(tetrahydro-2H-pyran-4-yl)imidazolidine-1-carboxamide] | 10 to 100 |  |  | 10 to 100 |  | 100 to 1000 | 10 to 100 | 100 to 1000 |  |  |  |
| Cc1nc(NC(=O)N2CCN(C3CCOCC3)C2=O)ccc1Oc1ccnc(-c2cn[nH]c2)c1 [Example 9, N-(5-((2-(1H-pyrazol-4-yl)pyridin-4-yl)oxy)-6-methylpyridin-2-yl)-2-oxo-3-(tetrahydro-2H-pyran-4-yl)imidazolidine-1-carboxamide] | 10 to 100 | 10 to 100 | 10 to 100 |  |  |  | 100 to 1000 |  |  |  |  |
| Cc1cc(-c2cc(Oc3ccc(NC(=O)N4CCN(C5CCOCC5)C4=O)nc3C)ccn2)on1 [Example 14, N-(6-methyl-5-((2-(3-methylisoxazol-5-yl)pyridin-4-yl)oxy)pyridin-2-yl)-2-oxo-3-(tetrahydro-2H-pyran-4-yl)imidazolidine-1-carboxamide] | 10 to 100 | 10 to 100 | 100 to 1000 |  |  | > 1000 | 100 to 1000 |  |  |  |  |
| Cn1cc(-c2cc(Oc3ccc(NC(=O)N4CCN(C5CCCCC5)C4=O)nc3)ccn2)cn1 [Example 15, 3-cyclohexyl-N-(5-((2-(1-methyl-1H-pyrazol-4-yl)pyridin-4-yl)oxy)pyridin-2-yl)-2-oxoimidazolidine-1-carboxamide] | < 10 | < 10 | 10 to 100 |  |  | 10 to 100 | < 10 |  | 3 | 370 | 670 |
| [2H]C([2H])([2H])n1cc(-c2cc(Oc3ccc(NC(=O)N4CCN([C@@H]5CCOC5)C4=O)nc3C)ccn2)cn1 [Example 37, (R)—N-(6-methyl-5-((2-(1-(trideuteromethyl)-1H-pyrazol-4-yl)pyridin-4-yl)oxy)pyridin-2-yl)-2-oxo-3-(tetrahydrofuran-3-yl)imidazolidine-1-carboxamide] | 10 to 100 |  |  | 10 to 100 | 100 to 1000 | > 1000 | 10 to 100 | 10 to 100 |  |  |  |
| CNC(=O)c1cc(Oc2ccc(NC(=O)N3CCN(C(C)(C)C)C3=O)nc2)ccn1 [Example 90, 4-((6-(3-(tert-butyl)-2-oxoimidazolidine-1-carboxamido)pyridin-3-yl)oxy)-N-methylpicolinamide] | 10 to 100 | < 10 |  |  | 10 to 100 | 10 to 100 | 10 to 100 |  | 5 | > 5000 | 3300 |
| Cn1cc(-c2cc(Oc3cc(F)c(NC(=O)N4CCN(C5CCOCC5)C4=O)cc3F)ccn2)cn1 [Example 91, N-(2,5-difluoro-4-((2-(1-methyl-1H-pyrazol-4-yl)pyridin-4-yl)oxy)phenyl)-2-oxo-3-(tetrahydro-2H-pyran-4-yl)imidazolidine-1-carboxamide] | 10 to 100 | < 10 | 10 to 100 |  | 100 to 1000 |  | 10 to 100 |  | 7 | > 5000 | > 3300 |
| CN(C)C(=O)Nc1cc(Oc2cc(F)c(NC(=O)N3CCN(C4CCOCC4)C3=O)cc2Cl)ccn1 [Example 101, N-(5-chloro-4-((2-(3,3-dimethylureido)pyridin-4-yl)oxy)-2-fluorophenyl)-2-oxo-3-(tetrahydro-2H-pyran-4-yl)imidazolidine-1-carboxamide] | < 10 | < 10 | 10 to 100 |  |  | 100 to 1000 | 10 to 100 |  | 8 | 4000 | > 3300 |

Now from value to compound, other results behind:

| IC50 (osteoclast precursors) [nM] | IC50 [1, 6] [nM] | IC50 [4, 7] [nM] | SMILES | IC50 [1, 5] [nM] | IC50 [2] [nM] | IC50 [3] [nM] | IC50 (M-NFS-60 cells) [nM] | IC50 [4] [nM] | IC50 ([1]; Table 4, read-out: c-FMS IC50) [nM] | IC50 (cMET kinase) [nM] | IC50 (KDR kinase) [nM] |
| --- | --- | --- | --- | --- | --- | --- | --- | --- | --- | --- | --- |
| 10 to 100 | < 10 | 10 to 100 | Cn1cc(-c2cc(Oc3cc(F)c(NC(=O)N4CCN(C5CCOCC5)C4=O)cc3Cl)ccn2)cn1 [Example 92, N-(5-chloro-2-fluoro-4-((2-(1-methyl-1H-pyrazol-4-yl)pyridin-4-yl)oxy)phenyl)-2-oxo-3-(tetrahydro-2H-pyran-4-yl)imidazolidine-1-carboxamide] |  | 10 to 100 |  | 10 to 100 |  |  |  |  |
| 100 to 1000 | 10 to 100 | 10 to 100 | O=C(Nc1cc(Cl)c(Oc2ccnc(-c3cn[nH]c3)c2)cc1F)N1CCN(C2CCOCC2)C1=O [Example 94, N-(4-((2-(1H-pyrazol-4-yl)pyridin-4-yl)oxy)-5-chloro-2-fluorophenyl)-2-oxo-3-(tetrahydro-2H-pyran-4-yl)imidazolidine-1-carboxamide] |  |  |  | 100 to 1000 |  |  |  |  |
| 100 to 1000 | 10 to 100 | 10 to 100 | Cn1cc(-c2cc(Oc3ccc(NC(=O)N4CCN(C5CCOCC5)C4=O)cc3Cl)ccn2)cn1 [Example 96, N-(3-chloro-4-((2-(1-methyl-1H-pyrazol-4-yl)pyridin-4-yl)oxy)phenyl)-2-oxo-3-(tetrahydro-2H-pyran-4-yl)imidazolidine-1-carboxamide] |  |  |  | > 1000 |  |  |  |  |
| 100 to 1000 | 10 to 100 | 100 to 1000 | CC(=O)Nc1cc(Oc2cc(F)c(NC(=O)N3CCN(C4CCOCC4)C3=O)cc2Cl)ccn1 [Example 97, N-(4-((2-acetamidopyridin-4-yl)oxy)-5-chloro-2-fluorophenyl)-2-oxo-3-(tetrahydro-2H-pyran-4-yl)imidazolidine-1-carboxamide] |  |  |  | 100 to 1000 |  |  |  |  |
